From patent publication US12213969B2, “2-spiro-5- and 6-hydroxamic acid indanes as HDAC inhibitors” (Valo Health, Inc., priority 2016, dated 2025)

Biological target: T1, Full length human recombinant HDAC6 protein (Homo sapiens, UniProt Q9UBN7)
T1 construct: made in house
T1 sequence (Q9UBN7 1-1215): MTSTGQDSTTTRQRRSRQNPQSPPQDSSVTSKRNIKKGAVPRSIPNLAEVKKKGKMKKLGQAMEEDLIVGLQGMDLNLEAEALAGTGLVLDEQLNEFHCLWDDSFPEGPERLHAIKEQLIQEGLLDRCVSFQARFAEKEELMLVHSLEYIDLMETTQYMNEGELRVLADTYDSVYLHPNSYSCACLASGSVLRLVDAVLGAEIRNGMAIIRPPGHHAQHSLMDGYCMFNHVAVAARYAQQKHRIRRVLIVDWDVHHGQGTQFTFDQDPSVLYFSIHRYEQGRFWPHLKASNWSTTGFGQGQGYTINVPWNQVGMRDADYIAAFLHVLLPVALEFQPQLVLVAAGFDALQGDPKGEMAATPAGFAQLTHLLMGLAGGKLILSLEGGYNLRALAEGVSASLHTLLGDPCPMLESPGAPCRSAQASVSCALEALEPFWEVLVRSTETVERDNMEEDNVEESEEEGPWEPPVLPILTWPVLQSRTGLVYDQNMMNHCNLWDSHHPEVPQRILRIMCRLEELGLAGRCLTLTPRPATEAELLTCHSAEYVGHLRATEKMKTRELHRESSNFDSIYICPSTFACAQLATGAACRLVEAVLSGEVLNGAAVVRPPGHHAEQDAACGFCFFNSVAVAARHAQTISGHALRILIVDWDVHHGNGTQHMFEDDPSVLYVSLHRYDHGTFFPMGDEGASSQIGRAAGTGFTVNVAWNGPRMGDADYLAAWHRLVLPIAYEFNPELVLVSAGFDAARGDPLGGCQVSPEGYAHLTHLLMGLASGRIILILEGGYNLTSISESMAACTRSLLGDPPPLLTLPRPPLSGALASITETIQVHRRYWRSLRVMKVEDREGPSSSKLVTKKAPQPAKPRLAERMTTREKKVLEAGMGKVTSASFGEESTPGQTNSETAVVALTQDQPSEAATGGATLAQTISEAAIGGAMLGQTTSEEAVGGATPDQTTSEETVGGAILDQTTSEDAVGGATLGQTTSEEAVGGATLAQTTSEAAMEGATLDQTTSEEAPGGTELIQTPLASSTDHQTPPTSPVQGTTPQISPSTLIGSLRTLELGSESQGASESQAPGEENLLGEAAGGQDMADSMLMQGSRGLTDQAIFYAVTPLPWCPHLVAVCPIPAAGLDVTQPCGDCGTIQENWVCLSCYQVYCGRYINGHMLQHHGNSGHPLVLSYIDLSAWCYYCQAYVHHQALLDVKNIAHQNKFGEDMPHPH
Assay: In vitro histone deacetylase assay: enzymatic HDAC6 electrophoretic mobility shift assay
Format: biochemical
Details: peptide substrate RHKK(Ac)-NH2 2 μM, enzyme 1 nM, 25° C., 12 concentrations; read-out: HDAC6 activity range (IC50)
Description: The enzymatic HDAC6 assay was performed using electrophoretic mobility shift assay. Full length human recombinant HDAC6 protein was expressed in baculoviral system and purified by affinity chromatography. The enzymatic reactions were assembled in 384 well plates in a total volume of 25 μL in a reaction buffer composing: 100 mM HEPES, pH 7.5, 25 mM KCl, 0.1% bovine serum albumin, 0.01% Triton X-100, 1% DMSO (from compounds) 2 μM of the fluorescently labeled peptide substrate and enzyme. The enzyme was added at a final concentration of 1 nM. The peptide substrate RHKK(Ac)-NH2 was used. The compounds were tested at 12 concentrations spaced by 3× dilution intervals. Negative control samples (0%-inhibition in the absence of inhibitor) and positive control samples (100%-inhibition) were assembled in replicates of four in each assay plate. The reactions were incubated at 25° C. and quenched by the addition of 45 μL of termination buffer (100 mM HEPES, pH 7.5, 0.01% Triton X-100, 0.05% SDS).
The terminated assay plates were analyzed on LabChip® 3000 microfluidic electrophoresis instrument (Perkin Elmer/Caliper Life Sciences). The fluorescence intensity of the electrophoretically separated de-acetylated product and substrate peptide was measured. Activity in each sample was determined as the product to sum ratio (PSR): P/(S+P), where P is the peak height of the product peptide and S is the peak height of the substrate peptide. Percent inhibition (Pinh) is determined using the following equation:
Pinh=(PSR0%−PSRinh)/(PSR0%−PSR100%)*100, where PSRinh is the product sum ratio in the presence of inhibitor, PSR0% is the average product sum ration in the absence of inhibitor and PSR100% is the average product sum ratio in 100%-inhibition control samples. The IC50 values of inhibitors were determined by fitting the %-inhibition curves with 4 parameter dose-response model using XLfit 4 software.
As set forth in Table-7, below, IC50 values are defined as follows: IC50≤0.01 μM (+++); IC50>0.01 μM and ≤0.05 μM (++); IC50>0.05 μM (+).

| SMILES | IC50 [nM] |
| --- | --- |
| O=C(NO)c1ccc2c(c1)C[C@]1(CCN(c3ccc(F)cc3)C1=O)C2 [Compound I-16, (S)-1′-(4-fluorophenyl)-N-hydroxy-2′-oxo-1,3-dihydrospiro[indene-2,3′-pyrrolidine]-5-carboxamide] | 10 to 50 |
| O=C(NO)c1ccc2c(c1)C[C@@]1(CCN(c3ccccn3)C1=O)C2 [Compound I-19, (R)—N-hydroxy-2′-oxo-1′-(pyridin-2-yl)-1,3-dihydrospiro[indene-2,3′-pyrrolidine]-5-carboxamide] | 10 to 50 |
| CN1CC[C@@]2(Cc3ccc(C(=O)NO)cc3C2)C1 [Compound I-25, (S)—N-hydroxy-1′-methyl-1,3-dihydrospiro[indene-2,3′-pyrrolidine]-5-carboxamide] | > 50 |
| O=C(NO)c1ccc2c(c1)C[C@@]1(CCN(Cc3cccnc3)C1=O)C2 [Compound I-23, (R)—N-hydroxy-2′-oxo-1′-(pyridin-3-ylmethyl)-1,3-dihydrospiro[indene-2,3′-pyrrolidine]-5-carboxamide] | 10 to 50 |
| O=C(NO)c1ccc2c(c1)C[C@]1(CCN(Cc3ccccc3)C1=O)C2 [Compound I-12, (S)-1′-benzyl-N-hydroxy-2′-oxo-1,3-dihydrospiro[indene-2,3′-pyrrolidine]-5-carboxamide] | 10 to 50 |
| CC(C)N1CC[C@@]2(Cc3ccc(C(=O)NO)cc3C2)C1=O [Compound I-4, (S)—N-hydroxy-1′-isopropyl-2′-oxo-1,3-dihydrospiro[indene-2,3′-pyrrolidine]-5-carboxamide] | > 50 |

Other lines, results leading:

| IC50 [nM] | SMILES |
| --- | --- |
| 10 to 50 | CC(=O)N1CC[C@@]2(Cc3ccc(C(=O)NO)cc3C2)C1 [Compound I-29, (S)-1′-acetyl-N-hydroxy-1,3-dihydrospiro[indene-2,3′-pyrrolidine]-5-carboxamide] |
| 10 to 50 | O=C(NO)c1ccc2c(c1)C[C@]1(CCCN(c3ccccc3)C1=O)C2 [Compound I-37, (S)—N-hydroxy-2′-oxo-1′-phenyl-1,3-dihydrospiro[indene-2,3′-piperidine]-5-carboxamide] |
| 10 to 50 | O=C(NO)c1ccc2c(c1)C[C@]1(CCCN(Cc3ccccc3)C1=O)C2 [Compound I-35, (S)-1′-benzyl-N-hydroxy-2′-oxo-1,3-dihydrospiro[indene-2,3′-piperidine]-5-carboxamide] |
